Consider four compounds from paper PMC7707621, “Oxidized Juncuenin B Analogues with Increased Antiproliferative Activity on Human Adherent Cell Lines: Semisynthesis and Biological Evaluation” (Journal of Natural Products, 2020).

“Also recorded” adds a separate entry of the source.

One assay has as its system MCF-7 cells. Nature of the assay: MTT antiproliferative assay on MCF-7. The assay is classed as cell-based, human. Conditions: for inhibition at 10 µM / inhibition at 30 µM: Homo sapiens, read-out: Growth inhibition (% ± SEM), MCF-7; for inhibition at 10 µM: MCF7, 10 μM; for inhibition at 30 µM: MCF7, 30 μM. As for the experimental part:
(§1) The antiproliferative assays of the products were carried out by a standard MTT method on human breast (MCF-7, T47D), cervical (HeLa, SiHa, C33A), and ovarian (A2780) cancer cells, and NIH/3T3 mouse embryonic fibroblast cell lines. In the first step, the diastereomeric and racemic mixtures 1–11 and the starting compound, juncuenin B, were tested to obtain information about their antiproliferative activity.
(§2) The antiproliferative activity and tumor selectivity of the compounds were measured by standard MTT assays. Tumor cell lines MCF-7, T47D, HeLa, A2780, and noncancerous NIH/3T3 were provided by European Collection of Authenticated Cell Cultures (ECACC, Salisbury, UK); cell lines SiHa and C33A by LGC Standards GmbH (Wesel, Germany). All chemicals and materials used for the antiproliferative assays were purchased from Sigma Aldrich Ltd. (Budapest, Hungary).
(§3) Growth-inhibition properties of racemates and pure enantiomer compounds were determined by standard MTT assays on six human malignant gynecological cell lines (MCF-7, T47D, HeLa, SiHa, C33A, A2780). To investigate tumor selectivity, the MTT assay was repeated on mouse embryonic fibroblast cells (NIH/3T3) under the same conditions. All cell lines were maintained in minimal essential medium (MEM) supplemented with 10% fetal bovine serum, 1% nonessential amino acids, and 1% penicillin–streptomycin–amphotericin B mixture, and were stored in humidified air containing 5% CO2 at 37 °C. All cell types were seeded into 96–well plates at a density of 5000 with the exception of C33a, which was seeded at a density of 10 000 and treated by increasing concentrations (0.1–30 μM) of the compounds for 72 h under cell culturing conditions. After the incubation, 5 mg/mL MTT [3-(4,5-dimethylthiazol-2-yl)-2,5-diphenyltetrazolium bromide] solution was added to samples for 4 h and precipitated blue formazan crystals were dissolved in DMSO. Absorbance values of the samples were measured at 545 nm using a microplate reader (Stat Fax-2100, Awareness Technologies Inc., Palm City, FL, USA) and untreated cells were used as control. Normalized sigmoidal dose–response curves were fitted to the determined data and the IC50 values were calculated by GraphPad Prism 5.01 (GraphPad Software, San Diego, CA, USA). Cisplatin (Ebewe Pharma GmbH, Unterach, Austria) was used as a reference agent in the same concentration range.
Background: Tetrazolium assays rely on reduction of a dye to a coloured formazan, in cell work by metabolically active cells.

The next assay has as its system HeLa cells. Nature of the assay: MTT antiproliferative assay on HeLa. The assay is classed as cell-based, human. Conditions: for inhibition at 10 µM / inhibition at 30 µM: Homo sapiens, HeLa, read-out: Growth inhibition (% ± SEM), HeLa. As for the experimental part: as §1, §2, §3
A further assay deals with A2780 cells. Nature of the assay: MTT antiproliferative assay on A2780. Conditions: for inhibition at 10 µM / inhibition at 30 µM: Homo sapiens, read-out: Growth inhibition (% ± SEM), A2780; for inhibition at 10 µM: A2780, 10 μM; for inhibition at 30 µM: A2780, 30 μM. The assay is classed as cell-based, human. As for the experimental part: as §1, §2, §3
Assay [1] has as its system MCF-7, T47D, HeLa, SiHa, C33A, A2780 cells. Nature of the assay: MTT antiproliferative assay, panel of human gynecological cancer cell lines (result in words). The assay is classed as cell-based. As for the experimental part: as §1, §2, §3
The subject of the next assay is SiHa cells. Description: MTT antiproliferative assay on SiHa. The assay is classed as cell-based, human. The settings on record: for inhibition at 10 µM / inhibition at 30 µM: Homo sapiens, SiHa, read-out: Growth inhibition (% ± SEM), SiHa. As for the experimental part: as §1, §2, §3
A further assay relates to T47D cells. Nature of the assay: MTT antiproliferative assay on T47D. The assay is classed as cell-based, human. Conditions: for inhibition at 10 µM / inhibition at 30 µM: Homo sapiens, T47D, read-out: Growth inhibition (% ± SEM), T47d. As for the experimental part: as §1, §2, §3
The next assay deals with C33A cells. Nature of the assay: MTT antiproliferative assay on C33A. The settings on record: for inhibition at 10 µM / inhibition at 30 µM: Homo sapiens, C-33-A, read-out: Growth inhibition (% ± SEM), C33a. The assay is classed as cell-based, human. As for the experimental part:
as §1, §2, §3

Usually inhibition stands for how much of the control response was suppressed. In the case of `C=CC1=C(C)C(=O)C(OCCCC)(OCCCC)c2c1ccc1c2C=CC(=O)C1(C)OCCCC` (stereo not shown) [Compound 10], the inhibition at 10 µM in the assay with MCF-7 cells, with HeLa cells (10 μM), in the assay with A2780 cells, with SiHa cells (10 μM), in the assay with T47D cells (10 μM) and with C33A cells (10 μM) was below 10% in each case. For the same compound, the inhibition at 30 µM came out at 42.5 ± 2.23% with MCF-7 cells; 14.1 ± 1.97% in the assay with HeLa cells (30 μM); 10.1 ± 1.23% with A2780 cells; 10.4 ± 2.8% in the assay on SiHa cells (30 μM); 33 ± 1.62% in the assay with T47D cells (30 μM); 16 ± 1.43% in the assay with C33A cells (30 μM). For the same compound, in assay [1], the “antiproliferative activity (in words)” value is “did not exert antiproliferative activity”.

Take `C=CC1=C(C)C(=O)C=C2C3(OC)C=CC(=O)C(C)=C3CCC21OC` (stereo not shown) [Compound 2b]: the “Growth inhibition (% ± SEM), MCF-7” value is given as 27.86±1.80% with MCF-7 cells (10 μM) and 46.79±1.23% with MCF-7 cells (30 μM). Further, the figures for the “Growth inhibition (% ± SEM), HeLa” value with HeLa cells (10 μM) and in the assay with HeLa cells (30 μM) were 16.35±1.56% and 38.33±1.22%, respectively. In addition, the entries for the “Growth inhibition (% ± SEM), A2780” value with A2780 cells (10 μM) and in the assay with A2780 cells (30 μM) were below 10% and 38.92±3.78%, respectively. Moreover, in assay [1], the “antiproliferative activity (in words)” value was “did not exert antiproliferative activity; also recorded: No significant activities”. Besides, the figures for the “Growth inhibition (% ± SEM), SiHa” value in the assay with SiHa cells (10 μM) and with SiHa cells (30 μM) were 14.10±2.36% and 15.32±0.68%, respectively. Further, the “Growth inhibition (% ± SEM), T47d” value in the assay on T47D cells (10 μM) is listed as 16.79±1.72%; with T47D cells (30 μM), 25.66±2.53%. Moreover, the results for the “Growth inhibition (% ± SEM), C33a” value in the assay on C33A cells (10 μM) and with C33A cells (30 μM) were below 10% and 23.25±2.82%, respectively.

As for `C=CC1=C2CCc3c(ccc(O)c3C)C2=CC(=O)C1(C)OCC` (stereo not shown) [Compound 9], the inhibition at 10 µM in the assay with MCF-7 cells is 10.7 ± 2.42%; in the assay on HeLa cells (10 μM), 15.1 ± 1.9%; in the assay with A2780 cells, below 10%; in the assay on SiHa cells (10 μM), below 10%; with T47D cells (10 μM), below 10%; in the assay on C33A cells (10 μM), below 10%. The inhibition at 30 µM was 17 ± 2.56% in the assay on MCF-7 cells; 18.4 ± 3.15% in the assay on HeLa cells (30 μM); below 10% in the assay on A2780 cells; below 10% with SiHa cells (30 μM); 13.2 ± 2.03% in the assay on T47D cells (30 μM); below 10% in the assay on C33A cells (30 μM). The “antiproliferative activity (in words)” value in assay [1] was “did not exert antiproliferative activity; also recorded: No significant activities”.

`C=Cc1c(C)c(O)c(OC)c2c3c(ccc12)C(C)(OC)C(=O)C=C3` (stereo not shown) [Compound 3]: the inhibition at 10 µM in the assay with MCF-7 cells was 22.7 ± 0.57%; in the assay with HeLa cells (10 μM), below 10%; in the assay on A2780 cells, below 10%; in the assay on SiHa cells (10 μM), below 10%; with T47D cells (10 μM), below 10%; in the assay with C33A cells (10 μM), below 10%. In addition, the inhibition at 30 µM in the assay with MCF-7 cells was 21.4 ± 0.34%; in the assay with HeLa cells (30 μM) it was 15 ± 1.11%; with A2780 cells, below 10%; with SiHa cells (30 μM), below 10%; in the assay with T47D cells (30 μM) it was 15.5 ± 2.06%; in the assay on C33A cells (30 μM), 14.2 ± 1.51%. Further, the “antiproliferative activity (in words)” value in assay [1] is recorded as “did not exert antiproliferative activity; also recorded: No significant activities”.
